Measurements published in publication PMC11459959, “Discovery of new acetamide derivatives of 5-indole-1,3,4-oxadiazol-2-thiol as inhibitors of HIV-1 Tat-mediated viral transcription” (Antimicrobial Agents and Chemotherapy, 2024).

Key:
[1] = system: HIV-1NL4-3 IRES-eGFP-nef+; assay: eGFP-encoding HIV-1 infection of TZM-bl cells; assay type: cell-based; details: 9, 10, 13 1.5 μM, 20, 21, 22 4 μM, seliciclib 10 µM, triptolide 5 nM, DTG 2 nM, EFV 2 nM, 2 days
[2] = system: Tat-mediated LTR transcription; assay: Dual-reporter assay, F-Luc (Tat-mediated LTR transcription) in bl-DTR cells; assay type: cell-based, HIV-1; details: Human immunodeficiency virus 1, 24 h, read-out: IC50 of F-Luc (Tat)
Protocol: Fig 1 (A) (Top panel) Schematic representation of the primary compound screening using a dual-reporter system. […] (B). […] (Top graphs) bl-DTR cells (1 × 10^4) were treated with twofold serial dilutions of each compound before doxycycline (Dox) addition (final concentration, 50 ng/mL). After 24 h of treatment, the activities of firefly luciferase (F-Luc, red line) and Renilla luciferase (R-Luc, blue line) were determined using the Dual-Glo Luciferase assay system. (Bottom graphs) TZM-bl cells were treated with each indicated compound and subsequently infected with the HIV-1NL4-3 strain at a multiplicity of infection (MOI) of 1. At 48 h after infection, the viral infectivity (purple line) and cell viability (green line) were determined using the Bright-Glo luciferase assay kit and the PrestoBlue Cell Viability Reagent, respectively. […] (C). […] The targeted moieties for the SAR study are marked with dotted-circle lines.
The Tzm-bl-derived dual Tat reporter; TZM-bl/Tat/Rluc (bl-DTR) cells were established from TZM-bl cells using two Dox-inducible lentiviral expression cassettes cloned with Flag-tagged Tat86 and the R-Luc gene, as described in our previous study ([11]). TZM-bl, A3.01, J1.1, and J-Lat 6.3 cells as well as the HIV-1 molecular clone pNL4-3, pNL(AD8), ARV-resistant HIV-1 strains, and HIV-1NL43-IRES-eGFP (pBR43IeG-nef^+, gifted by Dr. Frank Kirchhoff) ([52]) were provided by the National Institute of Health HIV Reagent Program (NIH, Bethesda, MD, USA). HeLa (CCL-2) and 293T (CRL-3216) cell lines were purchased from the American Type Culture Collection (ATCC, Manassas, VA, USA). The bl-DTR, TZM-bl, HeLa, and 293T cells were cultured in Dulbecco’s modified Eagle’s medium supplemented with 1% penicillin–streptomycin and 10% (vol/vol) heat-inactivated fetal bovine serum (all from Gibco-BRL, Gaithersburg, MD, USA), and 1 µg/mL of puromycin and 200 µg/mL of zeocin were additionally supplemented for the bl-DTR cells. PBMCs were purchased from AllCells (Alameda, CA, USA) and cultured as previously described ([12]). The information on ARV-resistant HIV-1 strains was described in previous reports as follows: NNRTI-resistant 12241 and 12243 ([53]); NRTI-resistant 7396, 7406, and 7407 ([54]); INSTI-resistant 11847 and 11849 ([55], [56]); and PI-resistant 11800 and 11803 ([57]). Each molecular HIV-1 clone was transfected to 293T cells, as previously described ([58]), to obtain infectious HIV-1 particles. Virus-containing cell culture supernatants were collected 3 days after transfection, and filtered through a 0.45-µm membrane filter (Millipore Sigma, Burlington, MA, USA) to remove cell debris. The viral titration was performed as described previously ([59]) with some minor modifications. In brief, 1 × 10^4 TZM-bl cells seeded in 96-well plates were infected with 200 µL of virus-containing medium diluted serially twofold. The incubation was for 2 days and the experiment was performed in triplicate; the infection time minimized the virus spread ([59]). The titration of the infectious viral particles was performed with a ß-Gal staining assay using the ßeta-Galactosidase Staining Kit (Mirus Bio, Madison, WI, USA) following the manufacturer’s protocols. In brief, the infected cells were washed with phosphate-buffered saline (PBS) and fixed using a Cell Fixative Working solution. The cells were washed with PBS and stained using the Cell Staining Working Solution containing X-gal. The infected blue-colored cells were counted under a microscope (100× magnification). The infectious virus titer was determined as a mean value of blue-colored cells count × dilution factor and used for determining the multiplicity of infection (MOI) in each infection experiment.

HIV-1 transcripts = assay: RNA-seq of HIV-1 transcripts in infected TZM-bl cells; assay type: cell-based; details: HIV-1NL4-3 MOI 1, 1.5 µM, 2 days
Protocol: At 48 h after infection, the total RNA was extracted using the Maxwell RSC simplyRNA Cells Kit (Promega) according to the manufacturer’s instructions. RNA integrity was evaluated as RNA integrity number >6 using the Agilent 2100 Bio-analyzer (Agilent Technologies, Santa Clara, CA, USA). The cDNA libraries were constructed using TruSeq Stranded mRNA Sample Preparation Kit (Illumina, San Diego, CA, USA) according to the manufacturer’s instructions. Subsequently, these cDNA libraries were sequenced on the Illumina sequencing platform (NovaSeq6000; Illumina) and 150 bp paired-end reads were generated. Trimmomatic (v.0.32) was used to eliminate low-quality reads and adapter sequences from the sequencing data ([64]). Subsequently, the filtered reads were aligned to the HIV-1 genome (accession: AF324493.2) using STAR (v.2.3.0) ([65]). RT-qPCR analyses were performed as previously described ([66]) with some minor modifications. […] After infection, the infected cells were treated with 1.5 µM of the compounds. Forty-eight hours after treatment, the viral mRNA was isolated, converted to cDNA, and quantified through RT-qPCR on a 7500 Real-Time PCR System (Applied Biosystems) using the Power SYBR Green PCR Master Mix (Applied Biosystems). The comparative cycle threshold (Ct) method was used to analyze relative changes (Δ) in gene expression. The ΔCt values were determined using a 7500 Real-Time PCR System Software (Applied Biosystems) normalizing with gapdh, and the gene expression was calculated using the ΔΔCt-method. The primers used in this assay are the following: gag forward, 5′-[…]-3′, gag reverse, 5′-[…]-3′; gapdh forward, 5′-[…]-3′, gapdh reverse, 5′-[…]-3′.

Structure (SMILES)	inhibition of viral-expressed eGFP signal [1]	IC50 [2] [nM]	read counts of transcripts mapped to the HIV-1 genome (HIV-1 transcripts)
CC(C)[C@]12O[C@H]1[C@@H]1O[C@]13[C@]1(O[C@H]1C[C@H]1C4=C(CC[C@@]13C)C(=O)OC4)[C@@H]2O [triptolide, reference compound]	remarkably inhibited	0.82 ± 0.02	–
Cc1[nH]c2ccc(-c3nnc(SCC(=O)N4CCCC4)o3)cc2c1C [Compound 13, 2-((5-(2,3-Dimethyl-1H-indol-5-yl)-1,3,4-oxadiazol-2-yl)thio)-1-(pyrrolidin-1-yl)ethan-1-one]	remarkably inhibited	300 ± 30	substantially reduced
Cc1[nH]c2ccc(-c3nnc(SCC(=O)N4CCCCC4)o3)cc2c1C [Compound 9, 2-((5-(2,3-Dimethyl-1H-indol-5-yl)-1,3,4-oxadiazol-2-yl)thio)-1-(piperidin-1-yl)ethan-1-one]	remarkably inhibited	140	substantially reduced
O=C1Nc2ccc(Cl)cc2[C@@](C#CC2CC2)(C(F)(F)F)O1 [EFV, efavirenz, reference compound]	remarkably inhibited	–	–
C[C@@H]1CCO[C@H]2Cn3cc(C(=O)NCc4ccc(F)cc4F)c(=O)c(O)c3C(=O)N12 [DTG, dolutegravir, reference compound]	remarkably inhibited	–	–
